Test results from US8183262B2, “Pyridine derivatives as mGluR2 antagonists” (Hoffmann-La Roche Inc., priority 2007, dated 2012).

melting point | SMILES
172 °C | Nc1ccc(-c2cccc(-c3cc(-c4ccc(Cl)cc4)cc(C(F)(F)F)n3)c2)cn1 [Example 235, 5-{3-[4-(4-Chloro-phenyl)-6-trifluoromethyl-pyridin-2-yl]-phenyl}-pyridin-2-ylamine]
264 °C | Cc1cc(-c2ccc(C(F)(F)F)cc2)cc(-c2ccnc(-c3cnc(N)nc3)n2)n1 [Example 240, 4-[6-Methyl-4-(4-trifluoromethyl-phenyl)-pyridin-2-yl]-[2,5′]bipyrimidinyl-2′-ylamine]
255.5 °C | Cc1cc(-c2ccc(Cl)cc2)nc(-n2cnc(-c3ncc(S(N)(=O)=O)s3)c2)n1 [Example 200, 2-{1-[4-(4-Chloro-phenyl)-6-methyl-pyrimidin-2-yl]-1H-imidazol-4-yl}-thiazole-5-sulfonic acid amide]
150 °C (dec.) | Cc1cc(-c2ccc(C(F)(F)F)c(C)c2)cc(-c2cccc(-c3cccc(S(=O)(=O)NC(C)(C)C)c3)n2)n1 [Example 438, N-tert-Butyl-3-[6′-methyl-4′-(3-methyl-4-trifluoromethyl-phenyl)-[2,2′]bipyridinyl-6-yl]-benzenesulfonamide]
237 °C | CC(C)(C)NS(=O)(=O)c1ccc(-c2cc(-c3nc(-c4ccc(C(F)(F)F)cc4)cc(C(F)(F)F)n3)ccn2)s1 [Example 162, 5-{4-[4-Trifluoromethyl-6-(4-trifluoromethyl-phenyl)-pyrimidin-2-yl]-pyridin-2-yl}-thiophene-2-sulfonic acid tert-butylamide]
170.5 °C | Cc1cc(-c2ccc(Cl)c(Cl)c2)nc(-c2cccc(-c3ccc(N)nc3)c2)n1 [Example 147, 5-{3-[4-(3,4-Dichloro-phenyl)-6-methyl-pyrimidin-2-yl]-phenyl}-pyridin-2-ylamine]
126 °C | COCCNS(=O)(=O)c1cccc(-c2cccc(-c3cc(-c4ccc(C(F)(F)F)cc4)cc(C)n3)n2)c1 [Example 371, N-(2-Methoxy-ethyl)-3-[6′-methyl-4′-(4-trifluoromethyl-phenyl)-[2,2′]bipyridinyl-6-yl]-benzenesulfonamide]
225 °C | NS(=O)(=O)c1cccc(-c2cn(-c3nc(-c4ccc(Cl)cc4)cc(C(F)(F)F)n3)cn2)c1 [Example 177, 3-{1-[4-(4-Chloro-phenyl)-6-trifluoromethyl-pyrimidin-2-yl]-1H-imidazol-4-yl}-benzenesulfonamide]
209 °C (dec.) | COc1cc(-c2cc(C)nc(-c3ccnc(-c4ccc(S(=O)(=O)NC(C)(C)C)s4)c3)c2)ccc1C(F)(F)F [Example 339, 5-[4-(3-Methoxy-4-trifluoromethyl-phenyl)-6-methyl-[2,4′]bipyridinyl-2′-yl]-thiophene-2-sulfonic acid tert-butylamide]
186 °C | Nc1ccc(-c2cccc(-c3nc(-c4ccc(C(F)(F)F)cc4)cc(C(F)(F)F)n3)c2)cc1 [Example 117, 3′-[4-Trifluoromethyl-6-(4-trifluoromethyl-phenyl)-pyrimidin-2-yl]-biphenyl-4-ylamine]
219 °C | Nc1ccc(-c2noc(-c3nc(-c4ccc(C(F)(F)F)cc4)cc(C(F)F)n3)n2)cn1 [Example 36, 5-{5-[4-Difluoromethyl-6-(4-trifluoromethyl-phenyl)-pyrimidin-2-yl]-[1,2,4]oxadiazol-3-yl}-pyridin-2-ylamine]
224.5 °C | NS(=O)(=O)c1cccc(-c2cccc(-c3nc(-c4ccc(C(F)(F)F)cc4F)cc(C(F)(F)F)n3)c2)c1 [Example 412, 3′-[4-(2-Fluoro-4-trifluoromethyl-phenyl)-6-trifluoromethyl-pyrimidin-2-yl]-biphenyl-3-sulfonic acid amide]
208 to 210 °C | Cc1cc(-c2ccc(C(F)(F)F)cc2)nc(-n2cnc(-c3cccnc3)c2)n1 [Example 48, 4-Methyl-2-(4-pyridin-3-yl-imidazol-1-yl)-6-(4-trifluoromethyl-phenyl)-pyrimidine]
211 °C | NS(=O)(=O)c1cccc(-c2cc(-c3nc(-c4ccc(C(F)(F)F)c(OCC(F)(F)F)c4)cc(C(F)(F)F)n3)ccn2)c1 [Example 448, 3-(4-{4-[3-(2,2,2-Trifluoro-ethoxy)-4-trifluoromethyl-phenyl]-6-trifluoromethyl-pyrimidin-2-yl}-pyridin-2-yl)-benzenesulfonamide]
244 °C | Cc1cc(-c2cc(C(F)(F)F)nc(-c3cccc(-c4cnc(N)nc4)c3)n2)ccc1C(F)(F)F [Example 124, 5-{3-[4-(3-Methyl-4-trifluoromethyl-phenyl)-6-trifluoromethyl-pyrimidin-2-yl]-phenyl}-pyrimidin-2-ylamine]
186 °C | Cc1cc(-c2ccc(C(F)(F)F)cc2)nc(-n2cnc(-c3cccc(S(N)(=O)=O)c3)c2)n1 [Example 184, 3-{1-[4-Methyl-6-(4-trifluoromethyl-phenyl)-pyrimidin-2-yl]-1H-imidazol-4-yl}-benzenesulfonamide]
> 250 °C | Cc1cc(-c2ccc(C(F)(F)F)cc2)nc(-c2cccc(-c3cccc(S(=O)(=O)NC(C)(C)C)c3)n2)n1 [Example 418, N-tert-Butyl-3-{6-[4-methyl-6-(4-trifluoromethyl-phenyl)-pyrimidin-2-yl]-pyridin-2-yl}-benzenesulfonamide]

melting point | SMILES
238 °C | Cc1cc(-c2ccc(C(F)(F)F)cc2)nc(-c2ccnc(-c3cccc(S(N)(=O)=O)c3)c2)c1 [Example 309, 3-[4-Methyl-6-(4-trifluoromethyl-phenyl)-[2,4′]bipyridinyl-2′-yl]-benzenesulfonamide]
277 °C | CC(C)c1cc(-c2ccc(C(F)(F)F)cc2)nc(-n2cnc(-c3cnc(N)nc3)c2)n1 [Example 153, 5-{1-[4-Isopropyl-6-(4-trifluoromethyl-phenyl)-pyrimidin-2-yl]-1H-imidazol-4-yl}-pyrimidin-2-ylamine]
208 °C | CCOc1cc(-c2cc(C(F)(F)F)nc(-c3cccc(-c4ccc(N)nc4)c3)n2)ccc1C(F)(F)F [Example 93, 5-{3-[4-(3-Ethoxy-4-trifluoromethyl-phenyl)-6-trifluoromethyl-pyrimidin-2-yl]-phenyl}-pyridin-2-ylamine]
133.5 °C | O=S(=O)(NCC1CC1)c1cccc(-c2cc(-c3nc(-c4ccc(C(F)(F)F)cc4)cc(C(F)(F)F)n3)ccn2)c1 [Example 408, N-Cyclopropylmethyl-3-{4-[4-trifluoromethyl-6-(4-trifluoromethyl-phenyl)-pyrimidin-2-yl]-pyridin-2-yl}-benzenesulfonamide]
211 °C | CC(C)(C)NS(=O)(=O)c1cccc(-c2cc(-c3nc(-c4ccc(C(F)(F)F)cc4)cc(C(F)(F)F)n3)ccn2)c1 [Example 156, N-tert-Butyl-3-{4-[4-trifluoromethyl-6-(4-trifluoromethyl-phenyl)-pyrimidin-2-yl]-pyridin-2-yl}-benzenesulfonamide]
224 °C | Cc1cc(-c2ccc(C(F)(F)F)cc2)nc(-c2cccc(-c3ccc(N)nc3)c2)n1 [Example 116, 5-{3-[4-Methyl-6-(4-trifluoromethyl-phenyl)-pyrimidin-2-yl]-phenyl}-pyridin-2-ylamine]
198 °C | NS(=O)(=O)c1cccc(-c2cn(-c3nc(-c4ccc(C(F)(F)F)cc4)cc(C(F)(F)F)n3)cn2)c1 [Example 160, 3-{1-[4-Trifluoromethyl-6-(4-trifluoromethyl-phenyl)-pyrimidin-2-yl]-1H-imidazol-4-yl}-benzenesulfonamide]
231 °C (dec.) | Cc1cc(-c2ccc(OC(F)(F)F)cc2)cc(-c2cccc(-c3cccc(S(N)(=O)=O)c3)n2)n1 [Example 437, 3-[6′-Methyl-4′-(4-trifluoromethoxy-phenyl)-[2,2′]bipyridinyl-6-yl]-benzenesulfonamide]
202 °C (dec.) | Cc1cc(-c2ccc(Cl)c(C)c2)nc(-n2cnc(-c3ccc(N)nc3)c2)n1 [Example 226, 5-{1-[4-(4-Chloro-3-methyl-phenyl)-6-methyl-pyrimidin-2-yl]-1H-imidazol-4-yl}-pyridin-2-ylamine]
255 °C | Cc1cc(-c2ccc(C#N)cc2)nc(-c2cccc(-c3cccc(S(N)(=O)=O)c3)n2)n1 [Example 442, 3-{6-[4-(4-Cyano-phenyl)-6-methyl-pyrimidin-2-yl]-pyridin-2-yl}-benzenesulfonamide]
211 °C | Cc1cc(-c2ccc(C(F)(F)F)cc2)nc(-c2cccc(-c3ccc(S(N)(=O)=O)s3)c2)c1 [Example 273, 5-{3-[4-Methyl-6-(4-trifluoromethyl-phenyl)-pyridin-2-yl]-phenyl}-thiophene-2-sulfonic acid amide]
267 °C | NS(=O)(=O)c1cccc(-c2cccc(-c3nc(-c4ccc(C(F)(F)F)cc4)cc(C(F)(F)F)n3)c2)c1 [Example 157, 3′-[4-Trifluoromethyl-6-(4-trifluoromethyl-phenyl)-pyrimidin-2-yl]-biphenyl-3-sulfonic acid amide]
187.5 °C | FC(F)(F)c1cc(-c2ccc(Cl)cc2)nc(-c2nc(-c3ccncc3)no2)n1 [Example 28, 4-(4-Chloro-phenyl)-2-(3-pyridin-4-yl-[1,2,4]oxadiazol-5-yl)-6-trifluoromethyl-pyrimidine]
326 °C | Cc1cc(-c2ccc(C(F)(F)F)cc2)nc(-c2nc(-c3ccc(S(N)(=O)=O)cc3)no2)n1 [Example 118, 4-{5-[4-Methyl-6-(4-trifluoromethyl-phenyl)-pyrimidin-2-yl]-[1,2,4]oxadiazol-3-yl}-benzenesulfonamide]
203 °C | Cc1cc(-c2ccc3c(c2)OCO3)cc(-c2cccc(-c3ccc(N)nc3)c2)n1 [Example 276, 5-[3-(4-Benzo[1,3]dioxol-5-yl-6-methyl-pyridin-2-yl)-phenyl]-pyridin-2-ylamine]
281 °C | Cc1cc(-c2ccc(Cl)cc2)nc(-n2cnc(-c3ccc(S(N)(=O)=O)s3)c2)n1 [Example 190, 5-{1-[4-(4-Chloro-phenyl)-6-methyl-pyrimidin-2-yl]-1H-imidazol-4-yl}-thiophene-2-sulfonic acid amide]
236.5 °C | NS(=O)(=O)c1ccc(-c2nc(-c3nc(-c4ccc(Cl)cc4)cc(C(F)(F)F)n3)no2)s1 [Example 24, 5-{3-[4-(4-Chloro-phenyl)-6-trifluoromethyl-pyrimidin-2-yl]-[1,2,4]oxadiazol-5-yl}-thiophene-2-sulfonic acid amide]
